Measured values taken from publication PMC3968527, “Dynamic mass redistribution analysis of endogenous β-adrenergic receptor signaling in neonatal rat cardiac fibroblasts” (Pharmacology Research & Perspectives, 2014).
Read-outs that look alike come from different tables or passages of the source.

Experiments:
[1] = tested on: endogenous βAR in primary neonatal rat cardiac fibroblasts (NRCF); test: Dynamic mass redistribution (DMR) response to βAR ligands in NRCF; format: cell-based; conditions: for EC50: read-out: EC50 (DMR)
EGFR in NRCF = test: EGFR-dependent DMR response to EGF in NRCF; format: cell-based, rat
cAMP generation in NRCF = test: FRET detection of cAMP generation using ICUE3 in NRCF; format: cell-based, rat; conditions: for effect on ISO-induced FRET (cAMP generation): antagonist 10 μmol/L, ISO 1 μmol/L
Protocol: ICUE3 adenovirus (Ad-ICUE3) was generously supplied by Dr. Yang Xiang (UC Davis). NRCF were seeded in the fibronectin-coated 10 mm glass-bottom insert of 35 mm dishes (MatTek Corporation, Ashland, MA) at 5 × 10^4 cells/10 mm insert and infected with Ad-ICUE3 at a multiplicity of infection (MOI) of 40 for 24 h with or without CTX addition (100 ng/mL overnight). 24 h after infection, the cells were rinsed and media replaced with imaging buffer, as previously described (Tilley et al. [2010]), prior to imaging using a Leica DMI4000B inverted microscope with a Leica DFC365 FX 1.4-megapixel monochrome digital camera with cyan fluorescent protein (CFP) excitation and CFP and yellow fluorescent protein (YFP) emissions measured every 2 sec. Cells were pretreated for 5 min with buffer or antagonists then, following 30 sec of baseline reads, the cells were stimulated with isoproterenol. The entire field-of view at 20× magnification was used to capture changes in fluorescence resonance energy transfer (FRET) in the NRCF population and each treatment condition was performed independently at least three times. Quantification of the ICUE3 ratio was calculated as changes in CFP emission/YFP emission over time, normalized to baseline.
EC50 and Emax values were attained via nonlinear regression curve fitting of the DMR, ICUE3, or EGFR internalization responses using Prism 5.0 software (GraphPad Software Inc.; San Diego, CA). Statistical analyses were performed using a one-way analysis of variance (ANOVA) followed by a Newman–Keuls multiple comparisons test or a two-tailed unpaired t-test, as appropriate. A value of P < 0.05 was considered statistically significant.

dynamin = tested on: dynamin; parameters: method as in Kirchhausen et al. [2008]; conditions: known/reported IC50; ref Kirchhausen et al. [2008]; cited from earlier work
Flag-EGFR-mYFP = test: EGFR internalization, on-cell western for loss of surface Flag-EGFR-mYFP in NRCF; format: cell-based, rat; conditions: Fig. 7C, 60 min treatment
Protocol: NRCF were seeded either in 35 mm glass-bottom dishes as described above or in clear-bottom black-walled 96-well plates (655090; Greiner Bio-One, Monroe, NC) at 3 × 10^4 cells/well and infected with Ad-Flag-EGFR-mYFP (constructed at Vector Biolabs, Philadelphia, PA) at an MOI of 200 for 24 h prior to stimulation with agonist as indicated. After 1 h, cells were fixed in 4% paraformaldehyde (163201145; Wako Chemicals, Richmond, VA) for 20 min, rinsed with phosphate-buffered saline (Corning/Cellgro, 21-030-CV) and on-cell western staining (nonpermeabolized) was performed using anti-Flag M2 antibody (1:1000, 3 h at RT, Sigma, F1804), IRDye® 800CW Conjugated Goat (polyclonal) Anti-mouse secondary antibody (1:1000, 1 h at RT, LI-COR, 926-32210) and DRAQ5 (1:5000, 1 h at RT, Cell Signaling Technology, #4084) following the LI-COR on-cell protocol. Flag and DRAQ5 signals were detected using Odyssey CLx infrared imaging system (LI-COR Biosciences, Lincoln, NE) and YFP signal was measured with a Tecan M1000 plate reader. Amount of EGFR internalization was calculated by normalizing the Flag signal to both the DRAQ5 (cell number control) and YFP (infection control) signals: Flag/DRAQ5/YFP. […] San Diego, CA). Statistical analyses were performed using a one-way analysis of variance (ANOVA) followed by a Newman–Keuls multiple comparisons test or a two-tailed unpaired t-test, as appropriate. […]

[2] = Rattus norvegicus, Cardiac fibroblast, agonist + buffer, 3-day-old NRCF
[3] = agonist + buffer, 3-day-old NRCF
[4] = agonist + cholera toxin (100 ng/mL)
[5] = agonist + propranolol (1 μmol/L)
[6] = antagonist 10 μmol/L, ISO 100 nmol/L
[7] = βAR antagonist alone, positive-deflected DMR (inverse agonism)

Compound: CC(CCc1ccc(O)cc1)NCCc1ccc(O)c(O)c1 (stereo not shown) [Dobutamine]
- DMR responses in presence of Prop ([1]; Prop 1 μmol/L): completely blocked
- EC50 [1, 2]: 134 ± 11.7 nM
- Emax (DMR) [1, 3]: −217.1 ± 3.5 pm
- Emax (DMR) [1, 4]: −86.0 ± 3.4 pm
- maximal DMR response, % of the ISO and Sal responses ([1]; at micromolar concentrations): ~75%
- EC50 [1, 4]: 50 ± 16.8 nM

Compound: COc1cc2ncnc(Nc3ccc(F)c(Cl)c3)c2cc1OCCCN1CCOCC1 [Gef, gefitinib]
- ISO-induced DMR response after pretreatment, % of the buffer-pretreated ISO response ([1]; ISO 100 nmol/L, CTX 100 ng/mL overnight, Gef 1 μmol/L): ~65%
- reduction of the ISO DMR response ([1]; ISO 100 nmol/L, CTX 100 ng/mL overnight, Gef 1 μmol/L, Fig. 7F): ~35%

Compound: CC(C)(C)NCC(O)c1ccc(O)c(CO)c1 (stereo not shown) [Salbutamol, salbutamol]
- EC50 [1, 2]: 15.6 ± 0.8 nM
- Emax (DMR) [1, 3]: −257.1 ± 1.8 pm
- Emax (DMR) [1, 4]: −122.4 ± 2.1 pm
- Emax (DMR) [1, 5]: −251.9 ± 6.3 pm
- EC50 [1, 4]: 30.1 ± 4.9 nM

Compound: epidermal growth factor [EGF]
- EC50 (EGFR in NRCF; Fig. S2D, read-out: EC50 (positive-deflected DMR)): < 1 nM
- EC50 (EGFR in NRCF; printed in picture of Fig. S2D, read-out: EC50 (peak DMR)): 0.45 ± 0.03 nM

Compound: Cn1cc(C(F)(F)F)nc1-c1ccc(OCC(O)CNCCOc2ccc(O)c(C(N)=O)c2)cc1 (stereo not shown) [CGP 20712A]
- DMR response of antagonist alone ([1]; 100 μmol/L, likely due to a toxic effect on the cells): extreme positive DMR deflection
- effect on ISO-mediated DMR effect [1, 6]: very small, though significant, decrease
- effect on ISO-induced FRET (cAMP generation) (cAMP generation in NRCF): partial blockade

Compound: COc1ccc(C2CNC(=O)C2)cc1OC1CCCC1 (stereo not shown) [Rol, rolipram]
- effect on ISO-mediated DMR response ([1]; Rol 10 nmol/L): significantly enhanced
- effect on ISO-mediated ICUE3 response (cAMP generation in NRCF; Rol 10 nmol/L): significantly enhanced

Compound: cholera toxin [CTX]
- ISO-induced DMR response after pretreatment, % of the buffer-pretreated ISO response [1]: ~35%
- reduction of the ISO DMR response [1]: ~65%
- effect on ISO-dependent cAMP generation (cAMP generation in NRCF): substantially reduced

Compound: O=C(N/N=C/c1ccc(O)c(O)c1)c1cc2ccccc2cc1O [Dyn, dynasore]
- effect on ISO-mediated DMR effect ([1]; Dyn pretreatment 100 μmol/L, 30 min): enhanced
- IC50 (dynamin): 15000 nM

Compound: CC(C)NCC(O)COc1cccc2ccccc12 (stereo not shown) [Propranolol, propranolol]
- effect on ISO-mediated DMR effect [1, 6]: very significantly reduced
- Emax (DMR) [1, 7]: 81.2 ± 2.5 pm
- effect on ISO-induced FRET (cAMP generation) (cAMP generation in NRCF): significantly blocked

Compound: Cc1ccc(OCC(O)C(C)NC(C)C)c2c1CCC2 (stereo not shown) [ICI 188,551, ICI 118,551]
- effect on ISO-mediated DMR effect [1, 6]: very significantly reduced
- Emax (DMR) [1, 7]: 117.3 ± 5.4 pm
- EC50 [1, 7]: 192 ± 61.7 nM
- effect on ISO-induced FRET (cAMP generation) (cAMP generation in NRCF): significantly blocked

Compound: CC(C)NCC(O)c1ccc(O)c(O)c1 (stereo not shown) [Isoproterenol]
- EC50 (Flag-EGFR-mYFP): 17.1 ± 5.5 nM
- Emax (DMR) ([1]; 8-day-old NRCF, Fig. 1D): −40 ± 5.3 pm
- ISO DMR response, % of the response attained with 2.5 × 10^4 cells ([1]; ISO 100 nmol/L, 1 × 10^4 cells per well): ~25%
- ISO DMR response, % of the response attained with 2.5 × 10^4 cells ([1]; ISO 100 nmol/L, 1.5 × 10^4 cells per well): ~50%
- EC50 [1, 2]: 15.4 ± 4.2 nM
- Emax (DMR) [1, 3]: −266.1 ± 8.2 pm
- Emax (DMR) [1, 4]: −109.6 ± 6.4 pm
- Emax (DMR) [1, 5]: −247.6 ± 4.3 pm
- EC50 [1, 5]: 809 ± 84.1 nM
- EC50 [1, 4]: 30.1 ± 17.4 nM
- EC50 (cAMP generation in NRCF; Rattus norvegicus, Fig. 5B): 7.4 ± 5.6 nM
